Values joined by “and” are separate entries in the source; they are usually repeats but may differ in a detail not shown here. Equal entries are not always repeated. Inconclusive results and toxic doses are left out.
Tested on: P388 leukemia ip, CD2F1 mice, survival T/C
Test: NCI In Vivo Anticancer Drug Screen. Data for tumor model P388 Leukemia (intraperitoneal) in CD2F1 (CDF1) mice
Details: endpoint: median survival time, higher = longer survival
How it was run: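 Mice carrying the transplanted tumor received test compound or vehicle. Survival was recorded in each group, and the value is the treated-group measurement divided by that of the vehicle-treated control group.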

[1] = dose: 60.0 mg/kg/injection, schedule: Q01DX005 (ip), vehicle: Klucel (hydroxypropylcellulose) (HPC)
[2] = dose: 120.0 mg/kg/injection, schedule: Q01DX005 (ip), vehicle: Klucel (hydroxypropylcellulose) (HPC)
[3] = dose: 240.0 mg/kg/injection, schedule: Q01DX005 (ip), vehicle: Klucel (hydroxypropylcellulose) (HPC)
[4] = dose: 60.0 mg/kg/injection, schedule: Q01DX005 (ip), vehicle: saline with Tween-80
[5] = dose: 120.0 mg/kg/injection, schedule: Q01DX005 (ip), vehicle: saline with Tween-80
[6] = dose: 50.0 mg/kg/injection, schedule: Q01DX009 (ip), vehicle: saline with Tween-80
[7] = dose: 100.0 mg/kg/injection, schedule: Q01DX009 (ip), vehicle: saline with Tween-80
[8] = dose: 50.0 mg/kg/injection, schedule: Q01DX005 (ip), vehicle: saline with Tween-80

Q: With `O=C1CSC(=S)N1c1ccc(Cl)c(C(F)(F)F)c1` as the molecule, how does the T/C (dose: 50.0 mg/kg/injection, schedule: Q01DX009 (ip), vehicle: suspension in saline) read?
A: 108 % of control

Q: And the T/C (dose: 100.0 mg/kg/injection, schedule: Q01DX009 (ip), vehicle: suspension in saline)?
A: 101 % of control

Q: What about the T/C (dose: 200.0 mg/kg/injection, schedule: Q01DX009 (ip), vehicle: suspension in saline) of the same molecule?
A: 104 % of control

Q: What does the source list for `CC1C(c2ccccc2)OCN1CC=C(c1ccsc1)c1ccsc1` (stereo not drawn)?
A: T/C [1]: 96 % of control; T/C [2]: 91 % of control; T/C [3]: 91 % of control

Q: What does the source list for `CSc1nc(N)n2nc(C)cc2n1`?
A: T/C [4]: 100 % of control; T/C [5]: 100 % of control; T/C (dose: 240.0 mg/kg/injection, schedule: Q01DX005 (ip), vehicle: saline with Tween-80): 95 % of control

Q: What does the source list for `CCOC(=O)c1nnc2cc(-c3ccccc3)nn2c1-c1ccccc1`?
A: T/C [4]: 101 % of control; T/C [5]: 95 % of control

Q: For `O=[N+]([O-])c1cc(Cl)c(Cl)cc1[N+](=O)[O-]`, which T/C [6] is on record?
A: 98 % of control

Q: What about the T/C [7] of the same molecule?
A: 111 % of control

Q: With `CCC1CN1P(=O)(Oc1ccc2ccccc2c1)N1CC1CC` (stereo not drawn) as the molecule, how does the T/C (dose: 44.0 mg/kg/injection, schedule: Q04DX003 (ip), vehicle: saline with Tween-80) read?
A: 104 % of control

Q: And the T/C [6]?
A: 173 % of control

Q: And the T/C (dose: 66.0 mg/kg/injection, schedule: Q04DX003 (ip), vehicle: saline with Tween-80)?
A: 109 % of control

Q: What about the T/C [7] of the same molecule?
A: 155 % of control and 177 % of control

Q: And the T/C (dose: 150.0 mg/kg/injection, schedule: Q01DX009 (ip), vehicle: saline with Tween-80)?
A: 100 % of control

Q: What about the T/C (dose: 150.0 mg/kg/injection, schedule: Q04DX003 (ip), vehicle: saline with Tween-80) of the same molecule?
A: 240 % of control

Q: What about the T/C (dose: 200.0 mg/kg/injection, schedule: Q01DX009 (ip), vehicle: saline with Tween-80) of the same molecule?
A: 170 % of control

Q: How did the T/C [1] turn out when `COC(=O)C1(CC(=O)c2c(C)[nH]c3ccccc23)NC(=S)NC(=O)C1C#N` (stereo not drawn) was run?
A: 100 % of control

Q: And the T/C [2]?
A: 100 % of control

Q: What about the T/C [3] of the same molecule?
A: 100 % of control

Q: `CN(C)CC(O)c1ccc2cc(Br)c3ccccc3c2c1` (stereo not drawn) was tested. Which T/C (dose: 12.5 mg/kg/injection, schedule: Q01DX005 (ip), vehicle: saline with Tween-80) did it give?
A: 97 % of control

Q: And the T/C (dose: 25.0 mg/kg/injection, schedule: Q01DX005 (ip), vehicle: saline with Tween-80)?
A: 106 % of control

Q: What about the T/C [8] of the same molecule?
A: 100 % of control and 97 % of control

Q: Which results are given for `CC1(C)CC(=O)NC(=O)N1`?
A: T/C [8]: 99 % of control; T/C (dose: 100.0 mg/kg/injection, schedule: Q01DX005 (ip), vehicle: saline with Tween-80): 94 % of control; T/C (dose: 200.0 mg/kg/injection, schedule: Q01DX005 (ip), vehicle: saline with Tween-80): 104 % of control

Q: How did the T/C (dose: 6.25 mg/kg/injection, schedule: Q01DX001 (ip), vehicle: Klucel (hydroxypropylcellulose) (HPC)) turn out when `OC1(c2ccccc2)C(c2ccccc2)=C(c2ccccc2)C(c2ccc(CCc3ccc(C4=C(c5ccccc5)C(O)(c5ccccc5)C(c5ccccc5)=C4c4ccccc4)cc3)cc2)=C1c1ccccc1` (stereo not drawn) was run?
A: 105 % of control

Q: What about the T/C (dose: 12.5 mg/kg/injection, schedule: Q01DX001 (ip), vehicle: Klucel (hydroxypropylcellulose) (HPC)) of the same molecule?
A: 111 % of control

Q: And the T/C (dose: 25.0 mg/kg/injection, schedule: Q01DX001 (ip), vehicle: Klucel (hydroxypropylcellulose) (HPC))?
A: 90 % of control

Q: And the T/C (dose: 50.0 mg/kg/injection, schedule: Q01DX001 (ip), vehicle: Klucel (hydroxypropylcellulose) (HPC))?
A: 94 % of control

Q: Which results are given for `CN(C)CCOc1cccc(NC2=C(Cl)C(=O)C(Nc3cccc(OCCN(C)C)c3)=C(Cl)C2=O)c1`?
A: T/C (dose: 1.56 mg/kg/injection, schedule: Q01DX005 (ip), vehicle: Klucel (hydroxypropylcellulose) (HPC)): 100 % of control and 107 % of control; T/C (dose: 3.12 mg/kg/injection, schedule: Q01DX005 (ip), vehicle: Klucel (hydroxypropylcellulose) (HPC)): 107 % of control and 96 % of control; T/C (dose: 6.25 mg/kg/injection, schedule: Q01DX005 (ip), vehicle: Klucel (hydroxypropylcellulose) (HPC)): 104 % of control and 122 % of control and 97 % of control

Q: Which T/C [1] does the source give for `O=C1CSC(=Nc2ccc(F)cc2F)N1Cc1cccs1` here?
A: 102 % of control

Q: What about the T/C [2] of the same molecule?
A: 113 % of control

Q: And the T/C [3]?
A: 103 % of control

Q: Which results are given for `CC1=C(C#N)C(=O)OC1(C)C1CCCC(=O)C1` (stereo not drawn)?
A: T/C (dose: 7.5 mg/kg/injection, schedule: Q01DX005 (ip), vehicle: saline with Tween-80): 99 % of control; T/C (dose: 15.0 mg/kg/injection, schedule: Q01DX005 (ip), vehicle: saline with Tween-80): 100 % of control; T/C (dose: 30.0 mg/kg/injection, schedule: Q01DX005 (ip), vehicle: saline with Tween-80): 98 % of control; T/C [4]: 100 % of control and 107 % of control

— PubChem BioAssay AID330 (DTP/NCI, 2004)
